The text below walks through data of patent publication US20240327359A1, “3-ISOXAZOLIDINONE COMPOUND, PREPARATION METHOD, HERBICIDAL COMPOSITION AND APPLICATION THEREOF” (QINGDAO KINGAGROOT CHEMICAL COMPOUND CO., LTD., priority 2021, published 2024).

This assay deals with weeds. Kind of assay: Activity test of the compositions, soil sealing treatment. It counts as in vivo. The following applies: for pest or weed control at 240 g/ha: B 16 g a.i./mu; for pest or weed control at 480 g/ha: B 32 g a.i./mu. The method, then: The desired active ingredient B was purchased from a reagent company or synthesized by a known method. The technical materials were all dissolved in acetone and diluted with an aqueous solution containing 0.10% emulsifier Tween-80 which were to be used immediately after dilution.
Weeds are cultivated in a controllable sunlight greenhouse at 20 to 30° C., in natural light, and with relative humidity of 57% to 72%. […] The test soil was filled quantitatively to ¾ of the pots and then watered from the bottom of the pots to completely wet the soil to saturation. The test weed seeds were accelerated to just germinate, and then evenly and quantitatively sowed on the surface, then covered with 0.5-1 cm soil according to the seed size, and ready for use 72 hours after sowing.
Each treatment was repeated 4 times. Four pots with 20 weed seeds per pot were treated each time.
The well-sowed test materials were evenly placed on a platform with an area of 0.5 m^2, and solution of agents was sprayed on the soil by the 3WP-2000-type walking spray tower at a dosage of 450 kg/ha and at a spray pressure of 0.3 MPa. After all the solution was sprayed, the valve was closed. After 30 seconds, the door of the spray tower was opened, and the nutritional bowl was taken out. Then the valve was opened, and the spray tube was cleaned by spraying 50 ml of water.
A method for investigating absolute numbers was employed. Whole seedlings of survival weeds were cut off with a blade along the soil surface, and the fresh weight of the weeds was weighed with an analytical balance. For dead weeds, the fresh weight thereof was zero.
The investigation was performed 21 days after the treatment for only once in total.

Setting [1] is: Echinochloa crus-galli, soil, read-out: Control effect (%) of B applied alone (B).
Setting [2] is: Lolium multiflorum, soil (S), B 20 g a.i./mu, read-out: Control effect (%) of B applied alone (B).
Where [3] appears, read: Lolium multiflorum, soil (S), B 40 g a.i./mu, read-out: Control effect (%) of B applied alone (B).
The mark [4] stands for this setting: Lolium multiflorum, soil (S), read-out: Control effect (%) of B applied alone (B).
The mark [5] stands for this setting: Echinochloa crusgalli, soil (S), B 4 g a.i./mu.
The mark [6] stands for this setting: Echinochloa crusgalli, soil (S), B 0.6 g a.i./mu.
The mark [7] stands for this setting: Echinochloa crusgalli, soil (S), B 1.2 g a.i./mu.
[8] abbreviates: Echinochloa crusgalli, soil (S), B 0.5 g a.i./mu.
Setting [9] is: Lolium multiflorum, soil, read-out: Control effect (%) of B applied alone (B).
Where [10] appears, read: Echinochloa crus-galli, Echinochloa crusgalli, soil (S), read-out: Control effect (%) of B applied alone (B).
[11] abbreviates: Potamogeton distinctus, soil, read-out: Control effect (%) of B applied alone (B).

Read-outs that look alike come from different tables or passages of the source.

In the case of `CC(C)=C1OC(=O)N(c2cc(OC3CCCC3)c(Cl)cc2F)C1=O` [pentoxazone], under setting [1], the pest or weed control at 30 g/ha stood at 40.1% and the pest or weed control at 60 g/ha was 57.3%.
On to `CC(C)CCCCCOC(=O)COc1ccc(Cl)cc1Cl` [2,4-D isooctyl ester], for which the “Control effect (%) of B applied alone (B)” value (“Control effect (%)” for short) is, setting by setting: (Veronica didyma, soil (S), B 6 g a.i./mu) 33.6%; (Veronica didyma, soil (S), B 12 g a.i./mu) 42.5%.
`CCNc1nc(NC(C)(C)C)nc(SC)n1` [terbutryne]: the “Control effect (%)” value (Alopecurus japonicus, soil (S), B 12 g a.i./mu) turned out to be 32.4% and the “Control effect (%)” value (Alopecurus japonicus, soil (S), B 24 g a.i./mu) was 41.9%.
Consider `CC(C)Oc1cc(-n2nc(C(C)(C)C)oc2=O)c(Cl)cc1Cl` [oxadiazon], for which the pest or weed control at 60 g/ha (Echinochloa crus-galli, Echinochloa crusgalli, soil (S), B 4 g a.i./mu, read-out: Control effect (%) of B applied alone (B)) was 37.2%. For the setting “Echinochloa crus-galli, Echinochloa crusgalli, soil (S), B 8 g a.i./mu, read-out: Control effect (%) of B applied alone (B)”, the pest or weed control at 120 g/ha turned out to be 51.9%.
For `CN1C[C@H](c2cccc(C(F)(F)F)c2)[C@@H](C(=O)Nc2ccccc2F)C1=O` [tetflupyrolimet], the “Control effect (%)” value (Echinochloa crusgalli, soil treatment (S), B at 1 g a.i./mu, 21 days) worked out at 34.7% and the “Control effect (%)” value (Echinochloa crusgalli, soil treatment (S), B at 2 g a.i./mu, 21 days) is 55.6%.
For the molecule S-metolachlor, the “Control effect (%)” value is 32.1% (Lolium multiflorum, soil (S), B 12 g a.i./mu) and 53.6% (Lolium multiflorum, soil (S), B 24 g a.i./mu).
Take `COP(=S)(OC)SCC(=O)N(c1ccc(Cl)cc1)C(C)(C)C` [anilofos]: under setting [1], the pest or weed control at 30 g/ha is 23.1% and the pest or weed control at 60 g/ha was 32.6%.
For the molecule `CCNc1nc(Cl)nc(NC(C)C)n1` [atrazine], the pest or weed control at 300 g/ha under setting [2] was found to be 18.9%. Under setting [3], the pest or weed control at 600 g/ha stood at 36.6%.
`COC(=O)[C@@H](C)O/N=C/c1cc(-n2c(=O)cc(C(F)(F)F)n(C)c2=O)c(F)cc1Cl`: the pest or weed control at 7.5 g/ha (Echinochloa crus-galli, Echinochloa crusgalli, soil (S), B 0.5 g a.i./mu, read-out: Control effect (%) of B applied alone (B)) is 31.5%. Under “Echinochloa crus-galli, Echinochloa crusgalli, soil (S), B 1 g a.i./mu, read-out: Control effect (%) of B applied alone (B)”, the pest or weed control at 15 g/ha was 42.3%.
Consider `CN(C(=O)COc1nc2ccccc2s1)c1ccccc1` [mefenacet], for which, under setting [4], the pest or weed control at 240 g/ha amounted to 18.5% and the pest or weed control at 480 g/ha was determined as 38.3%.
With `CCCOCCN(C(=O)CCl)c1c(CC)cccc1CC` [pretilachlor], the pest or weed control at 120 g/ha (Lolium multiflorum, soil (S), B 8 g a.i./mu, read-out: Control effect (%) of B applied alone (B)) was 23.4%. Moreover, the pest or weed control at 240 g/ha under setting [4] is 50.9%.
In the case of `O=C(Nc1ccc(F)cc1)c1cccc(Oc2cccc(C(F)(F)F)c2)n1` [picolinafen], the “Control effect (%)” value is, setting by setting: (Galium aparine, soil (S), B 0.5 g a.i./mu) 40.8%; (Galium aparine, soil (S), B 1 g a.i./mu) 55.7%.
Turning to `CS(=O)(=O)c1ccc(C(=O)C2=C(Sc3ccccc3)C3CCC(C3)C2=O)c(Cl)c1` (stereo not shown) [benzobicyclon], the “Control effect (%)” value was 22.6% (Echinochloa crusgalli, soil (S), B 2 g a.i./mu) and 42.8% under setting [5].
Turning to `COC[C@H](C)N(C(=O)CCl)c1c(C)csc1C` [dimethenamid-P], the “Control effect (%)” value under setting [5] amounted to 34.2% and the “Control effect (%)” value (Echinochloa crusgalli, soil (S), B 8 g a.i./mu) is listed as 47.5%.
Consider `CS(=O)(=O)c1ccc(C(=O)C2C(=O)CCCC2=O)c(Cl)c1COCC1CCCO1` (stereo not shown) [tefuryltrione], for which the “Control effect (%)” value came to 28.4% under setting [6] and 49.7% under setting [7].
Turning to `CC(C)c1ccc(NC(=O)N(C)C)cc1` [isoproturon], the pest or weed control at 120 g/ha (Alopecurus japonicus, soil (S), B 8 g a.i./mu, read-out: Control effect (%) of B applied alone (B)) worked out at 41.5%. For the same molecule, the pest or weed control at 240 g/ha (Alopecurus japonicus, soil (S), read-out: Control effect (%) of B applied alone (B)) is 53.6%.
On to `CCOc1ccccc1OS(=O)(=O)NC(=O)Nc1nc(OC)cc(OC)n1` [ethoxysulfuron], for which the pest or weed control at 3.75 g/ha (Cyperus difformis, soil (S), B 0.25 g a.i./mu, read-out: Control effect (%) of B applied alone (B)) worked out at 44.6%. The pest or weed control at 7.5 g/ha (Cyperus difformis, soil (S), B 0.5 g a.i./mu, read-out: Control effect (%) of B applied alone (B)) came out at 58.4%.
Regarding `COc1nc(OC)nc(C(=O)c2cccc(F)c2N(C)S(=O)(=O)C(F)F)n1` [triafamone], the “Control effect (%)” value reads like this: (Echinochloa crusgalli, soil (S), B 0.25 g a.i./mu) 27.6%; under setting [8], 38.4%.
Take `Nc1c([N+](=O)[O-])ccc(Oc2ccccc2)c1Cl` [aclonifen]: the pest or weed control at 300 g/ha under setting [2] amounted to 31.6%. Under setting [3], the pest or weed control at 600 g/ha was determined as 52.1%.
As for `CCNc1nc(NC(C)C)nc(SC)n1` [ametryne], under setting [9], the pest or weed control at 300 g/ha is 18.1% and the pest or weed control at 600 g/ha was found to be 31.6%.
For `C#CCOc1cc(-n2nc(C(C)(C)C)oc2=O)c(Cl)cc1Cl` [oxadiargy1], the “Control effect (%)” value by setting is: under setting [8], 36.2%; (Echinochloa crusgalli, soil (S), B 1 g a.i./mu) 47.9%.
With `CCNc1nc(Cl)nc(NC(C)(C)C)n1` [terbutylazine], the “Control effect (%)” value is listed as 33.8% (Echinochloa crusgalli, soil (S), B 6 g a.i./mu) and 52.7% (Echinochloa crusgalli, soil (S), B 12 g a.i./mu).
As for `COc1cc(OC)nc(NC(=O)NS(=O)(=O)c2c(C3=NOCC(C)O3)c(Cl)nn2C)n1` (stereo not shown) [metazosulfuron], the “Control effect (%)” value reads like this: (Echinochloa crusgalli, soil (S), B 0.75 g a.i./mu) 32.4%; (Echinochloa crusgalli, soil (S), B 1.5 g a.i./mu) 41.6%.
Turning to fluridone, the “Control effect (%)” value is, setting by setting: (Veronica didyma, soil (S), B 1 g a.i./mu) 37.2%; (Veronica didyma, soil (S), B 2 g a.i./mu) 50.4%.
Regarding `CCN(C(=O)n1nnn(-c2ccccc2Cl)c1=O)C1CCCCC1` [fentrazamide], under setting [10], the pest or weed control at 240 g/ha was determined as 32.5% and the pest or weed control at 480 g/ha is 50.8%.
Turning to `CCCc1ccc2nc(Cl)c(S(=O)(=O)NC(=O)Nc3nc(OC)cc(OC)n3)n2n1` [propyrisulfuron], the “Control effect (%)” value under setting [6] is on record as 22.6% and the “Control effect (%)” value under setting [7] came to 37.5%.
In the case of `CCC(CC)Nc1c([N+](=O)[O-])cc(C)c(C)c1[N+](=O)[O-]` [pendimethalin], under setting [4], the pest or weed control at 240 g/ha amounted to 23.6% and the pest or weed control at 480 g/ha was 42.7%.
Turning to `CSc1nnc(C(C)(C)C)c(=O)n1N` [metribuzin], the pest or weed control at 75 g/ha (Amaranthus retroflexus, soil (S), B 5 g a.i./mu, read-out: Control effect (%) of B applied alone (B)) is 40.5%. In addition, where the note is “Amaranthus retroflexus, soil (S), B 10 g a.i./mu, read-out: Control effect (%) of B applied alone (B)”, the pest or weed control at 150 g/ha was determined as 56.2%.
For the molecule `CCNc1nc(NCC)nc(SC)n1` [simetryn], under setting [11], the pest or weed control at 90 g/ha turned out to be 41.5% and the pest or weed control at 180 g/ha was 58.3%.
In the case of `O=C1C(Cl)C(CCl)CN1c1cccc(C(F)(F)F)c1` (stereo not shown) [flurochloridone], where the note is “Veronica polita, Veronica didyma, soil (S), B 4 g a.i./mu, read-out: Control effect (%) of B applied alone (B)”, the pest or weed control at 60 g/ha was found to be 45.1%. Also, the pest or weed control at 120 g/ha (Veronica polita, Veronica didyma, soil (S), B 8 g a.i./mu, read-out: Control effect (%) of B applied alone (B)) worked out at 60.8%.
Take `CC(C)(NC(=O)C(Br)C(C)(C)C)c1ccccc1` (stereo not shown) [bromobutide]: under setting [10], the pest or weed control at 240 g/ha worked out at 37.3% and the pest or weed control at 480 g/ha amounted to 53.6%.
Consider `COc1cc(OC)nc(NC(=O)NS(=O)(=O)c2c(C(=O)O)c(Cl)nn2C)n1` [halosulfuron], for which the pest or weed control at 7.5 g/ha (Veronica polita, Veronica didyma, soil (S), B 0.5 g a.i./mu, read-out: Control effect (%) of B applied alone (B)) came to 34.8%. Further, the pest or weed control at 15 g/ha (Veronica polita, Veronica didyma, soil (S), B 1 g a.i./mu, read-out: Control effect (%) of B applied alone (B)) was 54.6%.
